Measured values reported in PMC4830539, “Chemical Inhibition of Histone Deacetylases 1 and 2 Induces Fetal Hemoglobin through Activation of GATA2” (PLoS ONE, 2016).

Tests used:
[1] = test system: HBG mRNA; assay: HBG mRNA (%) by QPCR in differentiating BM cells (CS1, CS2); type: cell-based, human
Method: CD34+ cells isolated from human bone marrow of healthy normal donors (Lonza, AllCells, or StemCell Technologies), referred to as BM cells throughout this work, were cultured using two distinct 2-phase culture systems. These systems have been described previously and are referred to as Culture System 1 (CS1) and Culture System 2 (CS2) throughout this work. CS1 expansion media is StemSpan SFEM (StemCell Technologies) supplemented with CC100 (StemCell Technologies), 100 U/mL penicillin and 100 μg/mL streptomycin. CC100 is a mix of Flt-3 ligand (FLT3LG), KIT ligand (KITLG), interleukin-3 (IL3), and interleukin-6 (IL6). CS1 differentiation media is StemSpan SFEM supplemented with 1 U/ml erythropoietin (EPO), 5 ng/mL IL3, 20 ng/mL KITLG, 2 μM dexamethasone, 1 μM beta-estradiol, 100 U/mL penicillin and 100 μg/mL streptomycin. CS2 expansion media is StemSpan SFEM supplemented with 1% glutamine, 40 μg/mL lipids (Sigma), 100 ng/mL KITLG, 10 ng/mL IL3, and 0.5 U/mL EPO. CS2 differentiation media is same as CS2 expansion media, except 3 U/mL EPO.
Globin mRNA was detected using quantitative real time PCR (QPCR). Total RNA was isolated using RNeasy Micro Kit (Qiagen) with on-column DNase digestion, converted into cDNA using the High Capacity RNA-to-cDNA Kit (Life Technologies), diluted 5-fold with water, and 1 μL used as a template for QPCR. The percent of each β-like globin transcript was determined using the absolute standard curve method. Briefly, DNA corresponding to the full length transcript for each globin isoform was cloned into […] plasmid (GenScript, Piscataway NJ). Each plasmid was validated against each QPCR probe to ensure specificity. Plasmids were pooled at equal molar concentration and a dilution series spanning 8-logs was utilized as the standard curve. Throughout this work, ‘HBG mRNA (%)’ and ‘percent HBG mRNA’ refers to the abundance of HBG mRNA expressed relative to the sum of the abundances of all β-like globin transcripts, i.e. [HBG/(HBB+HBD+HBG+HBE)]*100. In cases where the transcript of interest was compared against the housekeeping gene ACTB, the comparative Ct ([…]) method was utilized. Probes used for QPCR: HBB (Hs00747223_g1), HBD (Hs00426283_m1), HBG (Hs00361131_g1, detects both HBG1 and HBG2), HBE (Hs00362215_g1), GATA1 (Hs01085823_m1), GATA2 (Hs00231119_m1), KLF1 (Hs00610592_m1), MYB (Hs00920556_m1), SOX6 (Hs00264525_m1), BCL11A (Hs01093197_m1), and ACTB (Hs99999903_m1).
To evaluate the ability of ACY-957 to activate HBG, we utilized two distinct 2-phase culture systems, referred to as CS1 [24] and CS2 [21], to derive erythroid progenitors and erythroblasts from CD34+ human bone marrow cells (BM cells). […]

[2] = test system: erythroid differentiation of BM cells; assay: Erythroid maturation stage by flow cytometry (TFRC and GYPA); type: cell-based, human; settings: for cells in TFRC/GYPA gate (gate not named): Fig 5A
Method: Flow cytometry was performed on a FC500 flow cytometer ([…]). Fetal hemoglobin protein was assayed using the Fetal Hemoglobin Test Kit (Life Technologies) according to manufacturer’s protocol. Samples were stained with FITC-conjugated mouse IgG1 anti-human HbF antibody (clone HbF-1, Life Technologies). Each sample was also stained with a FITC-conjugated mouse IgG1 isotype control antibody (clone X40, BD Biosciences) and used as a negative control. FETALtrol cells were used as positive controls (Trillium Diagnostics). TFRC and GYPA were detected on fresh cells by staining with 20 μL of PE-conjugated anti-human TFRC (clone M-A712, catalog 555537, BD Biosciences) and 0.5 μL of FITC- or APC-conjugated anti-human GYPA (clone GA-R2 (HIR2), catalog 559943 or 551336, BD Biosciences) in 200 μL PBS with 0.1% BSA for 40 min on ice. Forward and side scatter, or staining with 7AAD (catalog 559925, BD Biosciences), was used to identify viable cells.
To investigate the effects of HDAC1/2 inhibition on erythroid maturation, we followed differentiation by flow cytometry using TFRC and GYPA [38]. BM cells were cultured in CS1 expansion media for 7 days, yielding a pool of TFRC^negGYPA^neg cells composed of primitive and more differentiated hematopoietic progenitors of multiple lineages (Fig 4, ‘day 0’). These cells were then shifted to CS1 differentiation media containing either 1 μM of ACY-957 or vehicle control. […] The majority of vehicle control cells continued to differentiate over the next 3 days, becoming TFRC^posGYPA^pos by day 8. […] TFRC^posGYPA^mid cells are equivalent to proerythroblasts, while TFRC^posGYPA^pos cells include the more differentiated basophilic and polychromatic erythroblasts. Therefore, HDAC1/2 inhibition using 1 μM of ACY-957 was able to inhibit differentiation of proerythroblasts to basophilic erythroblasts in the liquid culture systems utilized in this study.

[3] = CS1 differentiation media, 1 μM

## Nc1ccc(-c2cccs2)cc1NC(=O)c1ccc2nc(N3CCNCC3)ccc2c1 [ACY-957]
[1]; CS1, day 5, 1 μM
  HBG mRNA (%): 35%
[1]; CS1 and CS2, 1 μM
  each β-like globin mRNA relative to ACTB: significantly increased levels of HBE and HBG mRNA and decreased levels of HBD and HBB mRNA
[1]; CS1 and CS2, day 5, 1 μM
  increase of HBG level over vehicle treated controls: approximately 3.5 fold
[1]; CS2, day 5, 1 μM
  HBG mRNA (%): 24%
[2]; [3]
  erythroid differentiation by day 8: accumulated at the TFRC^posGYPA^mid stage
  erythroid differentiation during the first 5 days: differentiated to the same extent as vehicle treated cells
[2]; Donor 1, CS1, day 5, 1 μM, first gate listed
  cells in TFRC/GYPA gate (gate not named): 61%
[2]; Donor 1, CS1, day 5, 1 μM, second gate listed
  cells in TFRC/GYPA gate (gate not named): 30%
[2]; Donor 2, CS1, day 5, 1 μM, first gate listed
  cells in TFRC/GYPA gate (gate not named): 62%
[2]; Donor 2, CS1, day 5, 1 μM, second gate listed
  cells in TFRC/GYPA gate (gate not named): 37%
[2]; Donor 3, CS1, day 5, 1 μM, first gate listed
  cells in TFRC/GYPA gate (gate not named): 65%
[2]; Donor 3, CS1, day 5, 1 μM, second gate listed
  cells in TFRC/GYPA gate (gate not named): 32%
